Key:
[1] = molecular target: T1, PI3Kα (Mus musculus, UniProt P42337); test: PI3Ks isoform in cell EC50 assay (AKT phosphorylation, Western Blotting); type: cell-based; settings: NIH-3T3, 20ng/ml PDGF-BB, read-out: cellular EC50 PI3K Alpha
T1 construct: endogenous in cells; host or cells: NIH-3T3

[2] = molecular target: T2, PI3Kβ (Mus musculus, UniProt Q8BTI9); test: as above; type: cell-based; settings: NIH-3T3, 5μM LPA, read-out: cellular EC50 PI3K Beta
T2 construct: endogenous in cells; host or cells: NIH-3T3
T2 sequence (Q8BTI9 whole entry): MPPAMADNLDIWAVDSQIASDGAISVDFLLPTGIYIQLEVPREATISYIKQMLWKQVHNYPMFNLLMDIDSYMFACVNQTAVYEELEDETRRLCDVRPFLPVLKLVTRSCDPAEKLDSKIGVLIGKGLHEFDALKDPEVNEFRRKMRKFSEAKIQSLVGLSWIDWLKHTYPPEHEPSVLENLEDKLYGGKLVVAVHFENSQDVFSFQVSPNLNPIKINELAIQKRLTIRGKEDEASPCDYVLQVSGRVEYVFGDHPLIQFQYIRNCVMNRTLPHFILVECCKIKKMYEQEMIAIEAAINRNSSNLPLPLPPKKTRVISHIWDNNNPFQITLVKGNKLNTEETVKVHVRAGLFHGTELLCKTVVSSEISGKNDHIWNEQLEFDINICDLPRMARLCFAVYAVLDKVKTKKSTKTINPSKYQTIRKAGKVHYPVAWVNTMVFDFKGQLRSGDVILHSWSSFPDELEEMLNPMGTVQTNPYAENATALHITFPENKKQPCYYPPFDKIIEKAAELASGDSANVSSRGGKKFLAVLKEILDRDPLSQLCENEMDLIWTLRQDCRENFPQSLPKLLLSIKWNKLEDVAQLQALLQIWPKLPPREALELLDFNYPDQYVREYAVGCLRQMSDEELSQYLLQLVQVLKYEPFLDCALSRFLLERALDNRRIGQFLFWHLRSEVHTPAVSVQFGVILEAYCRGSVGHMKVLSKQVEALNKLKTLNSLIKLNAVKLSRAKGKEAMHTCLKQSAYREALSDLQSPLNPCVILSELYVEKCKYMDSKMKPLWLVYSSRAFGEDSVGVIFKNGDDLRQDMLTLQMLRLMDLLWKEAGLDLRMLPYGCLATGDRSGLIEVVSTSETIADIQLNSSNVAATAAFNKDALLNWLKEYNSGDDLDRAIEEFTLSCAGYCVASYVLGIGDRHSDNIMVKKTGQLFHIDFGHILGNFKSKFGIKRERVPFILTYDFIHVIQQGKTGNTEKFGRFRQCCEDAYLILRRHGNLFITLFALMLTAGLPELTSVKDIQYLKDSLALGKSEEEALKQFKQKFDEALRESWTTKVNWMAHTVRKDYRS
T2 sequence (P26450 whole entry partner): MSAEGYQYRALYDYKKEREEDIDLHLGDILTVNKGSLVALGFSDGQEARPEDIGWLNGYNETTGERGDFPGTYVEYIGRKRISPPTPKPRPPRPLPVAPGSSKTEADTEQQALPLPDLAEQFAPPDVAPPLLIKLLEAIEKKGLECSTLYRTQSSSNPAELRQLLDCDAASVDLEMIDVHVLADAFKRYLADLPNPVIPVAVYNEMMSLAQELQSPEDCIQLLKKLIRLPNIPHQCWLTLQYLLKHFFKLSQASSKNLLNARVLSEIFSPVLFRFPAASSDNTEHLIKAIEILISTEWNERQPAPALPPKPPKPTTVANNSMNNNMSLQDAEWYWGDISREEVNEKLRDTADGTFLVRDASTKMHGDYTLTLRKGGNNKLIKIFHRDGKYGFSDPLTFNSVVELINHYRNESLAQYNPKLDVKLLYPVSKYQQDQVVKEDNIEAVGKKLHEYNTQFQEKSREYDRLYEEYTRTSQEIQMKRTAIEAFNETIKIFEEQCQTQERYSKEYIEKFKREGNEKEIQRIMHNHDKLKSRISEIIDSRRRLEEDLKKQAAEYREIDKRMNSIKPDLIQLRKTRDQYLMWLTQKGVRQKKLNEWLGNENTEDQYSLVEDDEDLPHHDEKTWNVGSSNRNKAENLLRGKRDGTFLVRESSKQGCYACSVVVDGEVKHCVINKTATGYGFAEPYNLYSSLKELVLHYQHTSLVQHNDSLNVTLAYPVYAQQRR

[3] = tested on: AMO-1; test: Anti-proliferative assay; type: cell-based; settings: Homo sapiens, AMO1; AMO-1, MM; 72 hours, CellTiter-Glo
Experimental: (§1) Cells were grown in 96-well culture plates (3000-4000/well). […] Cell proliferation was determined after treatment with compounds for 72 hours. Cell viability was measured using the CellTiter–Glo Assay Kit (Promega, USA), according to the manufacturer's instructions, and luminescence was measured in a multi-label reader (Envision, PerkinElmer, USA). Data were normalized to control groups (DMSO) and represented by the mean of three independent measurements with standard error <20%. GI50 values were calculated using Prism 5.0 (GraphPad Software, San Diego, CA).

[4] = tested on: CMK; test: Anti-proliferative assay; type: cell-based; settings: Homo sapiens, AML, 72 hours, CellTiter-Glo
Experimental: as §1

[5] = tested on: HEL; test: Anti-proliferative assay; type: cell-based; settings: Homo sapiens, AML-M6, 72 hours, CellTiter-Glo
Experimental: as §1

[6] = tested on: HL-60; test: Anti-proliferative assay; type: cell-based; settings: Homo sapiens; HL-60, AML-M2; 72 hours, CellTiter-Glo
Experimental: as §1

[7] = tested on: HT; test: Anti-proliferative assay; type: cell-based; settings: Homo sapiens, B-cell lymphoma, 72 hours, CellTiter-Glo
Experimental: as §1

[8] = tested on: Hs 505T; test: Anti-proliferative assay; type: cell-based; settings: Homo sapiens, CLL, 72 hours, CellTiter-Glo
Experimental: as §1

[9] = tested on: JVM-2; test: Anti-proliferative assay; type: cell-based; settings: Homo sapiens; JVM-2, Mantle cell lymphoma; 72 hours, CellTiter-Glo
Experimental: as §1

[10] = tested on: MEC-1; test: Anti-proliferative assay; type: cell-based; settings: Homo sapiens, MEC1; MEC-1, CLL; 72 hours, CellTiter-Glo
Experimental: as §1

[11] = tested on: MEC-2; test: Anti-proliferative assay; type: cell-based; settings: Homo sapiens, MEC2; MEC-2, CLL; 72 hours, CellTiter-Glo
Experimental: as §1

[12] = tested on: MOLM-13; test: Anti-proliferative assay; type: cell-based; settings: Homo sapiens; MOLM-13, AML-M5; 72 hours, CellTiter-Glo
Experimental: as §1

[13] = tested on: MOLM-14; test: Anti-proliferative assay; type: cell-based; settings: Homo sapiens; MOLM-14, AML-M5; 72 hours, CellTiter-Glo
Experimental: as §1

[14] = tested on: MV4-11; test: Anti-proliferative assay; type: cell-based; settings: Homo sapiens; MV4-11, AML; 72 hours, CellTiter-Glo
Experimental: as §1

[15] = tested on: NALM-6; test: Anti-proliferative assay; type: cell-based; settings: Homo sapiens, 72 hours, CellTiter-Glo
Experimental: as §1

[16] = tested on: NB4; test: Anti-proliferative assay; type: cell-based; settings: Homo sapiens; NB4, AML-3; 72 hours, CellTiter-Glo
Experimental: as §1

[17] = tested on: NOMO-1; test: Anti-proliferative assay; type: cell-based; settings: Homo sapiens; NOMO-1, AML-M5; 72 hours, CellTiter-Glo
Experimental: as §1

[18] = tested on: Namalwa; test: Anti-proliferative assay; type: cell-based; settings: Homo sapiens, Burrkit lymphoma, 72 hours, CellTiter-Glo
Experimental: as §1

[19] = tested on: OCI-AML-2; test: Anti-proliferative assay; type: cell-based; settings: Homo sapiens, OCI-AML2; OCI-AML-2, AML-M4; 72 hours, CellTiter-Glo
Experimental: as §1

[20] = tested on: OCI-AML-3; test: Anti-proliferative assay; type: cell-based; settings: Homo sapiens; OCI-AML-3, AML-M4; 72 hours, CellTiter-Glo
Experimental: as §1

[21] = tested on: PF382; test: Anti-proliferative assay; type: cell-based; settings: Homo sapiens, PF-382; PF382, ALL; 72 hours, CellTiter-Glo
Experimental: as §1

[22] = tested on: RPMI8226; test: Anti-proliferative assay; type: cell-based; settings: Homo sapiens, RPMI-8226; RPMI8226, MM; 72 hours, CellTiter-Glo
Experimental: as §1

[23] = tested on: Ramos(new); test: Anti-proliferative assay; type: cell-based; settings: Homo sapiens, Burrkit lymphoma, 72 hours, CellTiter-Glo
Experimental: as §1

[24] = tested on: SKM-1; test: Anti-proliferative assay; type: cell-based; settings: Homo sapiens; SKM-1, AML-M5; 72 hours, CellTiter-Glo
Experimental: as §1

[25] = tested on: U937; test: Anti-proliferative assay; type: cell-based; settings: Homo sapiens, U-937; U937, AML; 72 hours, CellTiter-Glo
Experimental: as §1

[26] = tested on: CLL patient primary cell; test: Anti-proliferative efficacy against patient primary cells; type: cell-based; settings: Homo sapiens
Experimental: Peripheral blood mononuclear cells (PBMCs) from individuals with CLL were isolated by density centrifugation through Ficoll and frozen for each subject. Those subjects with low white counts whose CLL cell purity was expected to be < 85% underwent B cell isolation using RosetteSep. The protocol was approved by the Dana-Farber Harvard Cancer Center Institutional Review Board and all subjects signed written informed consent prior to participation.
as §1

[27] = tested on: AML patient primary cell; test: as above; type: cell-based; settings: Homo sapiens
Experimental: Mononuclear cells were isolated from AML patients. Mononuclear cells were isolated by density gradient centrifugation through Ficoll-Plaque Plus (Amersham Pharmacia Biotech AB, Uppsala, Sweden) at 2000 rpm for 30 minutes, followed by two washes in 1X PBS. Freeze-thawed cells were then cultured in liquid culture (DMEM, supplemented with 20% FBS). All blood and bone marrow samples from AML patients were obtained through written consent under approval of the Dana Farber Cancer Institute Institutional Review Board. The ethics committees approved the consent procedure.
as §1

[28] = molecular target: PI3Kγ (Mus musculus, UniProt Q9JHG7); test: cell-based
Chain of PI3Kγ (Q9JHG7 whole entry): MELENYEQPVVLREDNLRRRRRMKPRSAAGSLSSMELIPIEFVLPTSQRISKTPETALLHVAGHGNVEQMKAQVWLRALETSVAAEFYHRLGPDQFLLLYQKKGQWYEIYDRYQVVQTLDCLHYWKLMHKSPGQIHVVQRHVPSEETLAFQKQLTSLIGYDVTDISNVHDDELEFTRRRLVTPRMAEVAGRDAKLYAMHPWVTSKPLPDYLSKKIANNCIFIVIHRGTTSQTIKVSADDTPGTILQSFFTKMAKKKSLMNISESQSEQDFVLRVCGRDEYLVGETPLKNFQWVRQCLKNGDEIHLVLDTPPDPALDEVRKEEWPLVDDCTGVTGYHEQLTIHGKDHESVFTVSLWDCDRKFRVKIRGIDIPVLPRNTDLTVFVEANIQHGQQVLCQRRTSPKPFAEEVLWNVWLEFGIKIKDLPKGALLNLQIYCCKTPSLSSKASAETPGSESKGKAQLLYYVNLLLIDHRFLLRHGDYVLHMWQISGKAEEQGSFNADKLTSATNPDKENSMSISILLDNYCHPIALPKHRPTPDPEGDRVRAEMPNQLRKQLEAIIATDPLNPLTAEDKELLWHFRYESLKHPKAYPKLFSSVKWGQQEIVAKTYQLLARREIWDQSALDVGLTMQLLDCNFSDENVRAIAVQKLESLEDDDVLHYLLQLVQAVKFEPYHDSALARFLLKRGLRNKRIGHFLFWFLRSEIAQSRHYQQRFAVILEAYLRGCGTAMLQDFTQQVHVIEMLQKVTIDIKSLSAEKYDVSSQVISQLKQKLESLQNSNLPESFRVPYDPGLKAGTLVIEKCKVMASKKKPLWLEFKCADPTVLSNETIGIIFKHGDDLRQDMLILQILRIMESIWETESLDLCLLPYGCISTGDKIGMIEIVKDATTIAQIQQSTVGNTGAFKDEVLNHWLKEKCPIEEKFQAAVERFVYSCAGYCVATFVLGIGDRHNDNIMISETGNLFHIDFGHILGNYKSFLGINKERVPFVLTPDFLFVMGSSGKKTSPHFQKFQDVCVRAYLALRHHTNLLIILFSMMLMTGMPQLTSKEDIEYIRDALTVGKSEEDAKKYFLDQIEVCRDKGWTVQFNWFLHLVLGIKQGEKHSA

T1 sequence (P42337 whole entry, canonical isoform): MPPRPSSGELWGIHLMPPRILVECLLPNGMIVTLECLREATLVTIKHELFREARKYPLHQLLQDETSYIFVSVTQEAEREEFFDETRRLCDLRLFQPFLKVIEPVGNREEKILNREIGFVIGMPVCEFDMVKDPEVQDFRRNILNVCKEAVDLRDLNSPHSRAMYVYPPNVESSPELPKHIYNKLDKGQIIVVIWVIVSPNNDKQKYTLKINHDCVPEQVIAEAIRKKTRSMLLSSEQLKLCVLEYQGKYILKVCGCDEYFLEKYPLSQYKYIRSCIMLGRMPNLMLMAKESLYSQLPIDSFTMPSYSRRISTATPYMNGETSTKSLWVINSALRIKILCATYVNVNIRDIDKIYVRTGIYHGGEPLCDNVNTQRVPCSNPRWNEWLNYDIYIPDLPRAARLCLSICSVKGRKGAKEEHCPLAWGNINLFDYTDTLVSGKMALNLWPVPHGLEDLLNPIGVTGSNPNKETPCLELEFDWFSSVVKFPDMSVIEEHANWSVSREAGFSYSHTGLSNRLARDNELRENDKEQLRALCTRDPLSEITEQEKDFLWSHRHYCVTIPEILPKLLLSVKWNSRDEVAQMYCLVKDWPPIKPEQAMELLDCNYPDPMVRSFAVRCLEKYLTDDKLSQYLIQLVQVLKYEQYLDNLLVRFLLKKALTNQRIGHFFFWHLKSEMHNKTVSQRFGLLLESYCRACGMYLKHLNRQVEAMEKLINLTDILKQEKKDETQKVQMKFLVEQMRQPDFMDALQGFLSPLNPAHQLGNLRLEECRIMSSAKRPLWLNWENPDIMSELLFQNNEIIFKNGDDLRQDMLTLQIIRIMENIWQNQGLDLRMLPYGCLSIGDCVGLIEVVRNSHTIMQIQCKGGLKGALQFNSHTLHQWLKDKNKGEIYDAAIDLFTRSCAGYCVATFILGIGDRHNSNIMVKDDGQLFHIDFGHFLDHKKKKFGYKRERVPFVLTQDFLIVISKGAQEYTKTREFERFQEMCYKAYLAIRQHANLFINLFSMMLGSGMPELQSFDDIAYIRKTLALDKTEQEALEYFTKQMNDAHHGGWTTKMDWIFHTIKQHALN
T1 sequence (P26450 whole entry partner, canonical isoform): as the sequence (P26450 whole entry partner) above

SMILES | EC50 [1] [nM] | EC50 [2] [nM] | GI50 [3] [nM] | GI50 [4] [nM] | GI50 [5] [nM] | GI50 [6] [nM] | GI50 [7] [nM] | GI50 [9] [nM] | GI50 [12] [nM] | GI50 [13] [nM] | GI50 [14] [nM] | GI50 [15] [nM] | GI50 [16] [nM] | GI50 [17] [nM] | GI50 [18] [nM] | GI50 [19] [nM] | GI50 [20] [nM] | GI50 [21] [nM] | GI50 [22] [nM] | GI50 [23] [nM] | also measured
CC[C@H](Nc1ncnc2[nH]cnc12)c1nc2cccc(F)c2c(=O)n1-c1ccccc1 [CAL-101, Idelalisib] | > 3000 | > 3000 | > 10000 | > 10000 | > 10000 | > 10000 | > 10000 | > 10000 | > 10000 | 7800 | > 10000 | > 10000 | > 10000 | > 10000 | > 10000 | > 10000 | 2400 | > 10000 | > 10000 | > 10000 | GI50 [8]: > 10000 nM; GI50 [10]: > 10000 nM; GI50 [11]: > 10000 nM; GI50 [24]: > 10000 nM; GI50 [25]: > 10000 nM; GI50 ([26]; patient primary cell CLL16): > 10000 nM; GI50 ([26]; patient primary cell CLL18): > 10000 nM; GI50 ([26]; patient primary cell CLL19): > 10000 nM; GI50 ([27]; AML1, patient primary cell AML1): > 10000 nM; GI50 ([27]; AML3, patient primary cell AML3): > 10000 nM; GI50 ([27]; patient primary cell AML2): 1010 nM; GI50 ([27]; patient primary cell AML4): > 10000 nM; GI50 ([27]; patient primary cell AML5): > 10000 nM; GI50 ([27]; patient primary cell AML6): > 10000 nM; EC50 [28]: 2320 nM
CS(=O)(=O)N1CCN(Cc2cc3nc(-c4cccc5[nH]ncc45)nc(N4CCOCC4)c3s2)CC1 [GDC-0941] | 624 | 176 | 300 | 300 | > 10000 | 160 | 500 | > 10000 | 150 | 300 | 1400 | 390 | 1000 | 1000 | 390 | 2000 | 730 | 460 | 2600 | 2100 | GI50 [24]: 540 nM; GI50 [25]: 1600 nM

— PMC5078040 (Oncotarget, 2016)
